Values after ≈ are worked out from the molar mass of the structure shown. Structures can show the parent of a compound that is named as a salt. Where two headings read alike, the source gives them in different places.
How the values were obtained:
[1] = system: Bacillus subtilis ATCC6633; assay: Minimum growth inhibitory concentration, Test Example 1; assay type: cell-based
Experimental: (§1) The minimum growth inhibitory concentration (MIC) against various bacteria was measured in a bacterial count of 10^6 CFU/ml using medium SDA (NISSUI) in accordance with the Japan Chemotherapy Association.

[2] = system: Citrobacter freundii GN346/16-10; assay: as above; assay type: cell-based; settings: GN346, read-out: Minimum Growth Inhibitory Concentration MIC
Experimental: as §1

[3] = system: Citrobacter freundii GN346/16; assay: as above; assay type: cell-based
Experimental: as §1

[4] = system: Citrobacter freundii GN346; assay: as above; assay type: cell-based
Experimental: as §1

Escherichia coli 255/S-1 = assay: as above; assay type: cell-based; settings: 255/S1, 10^6 CFU/ml, medium SDA
Experimental: as §1

Escherichia coli 255 = assay: as above; assay type: cell-based; settings: 10^6 CFU/ml, medium SDA
Experimental: as §1

[5] = system: Escherichia coli W3630 RGN238; assay: as above; assay type: cell-based; settings: W3630RGN238, read-out: Minimum Growth Inhibitory Concentration MIC
Experimental: as §1

[6] = system: Escherichia coli W3630 RGN823; assay: as above; assay type: cell-based; settings: W3630RGN823, read-out: Minimum Growth Inhibitory Concentration MIC
Experimental: as §1

[7] = system: Pseudomonas aeruginosa IAM-1007; assay: as above; assay type: cell-based
Experimental: as §1

[8] = system: Pseudomonas aeruginosa M-0148; assay: as above; assay type: cell-based
Experimental: as §1

[9] = system: Pseudomonas aeruginosa Ml Rms139; assay: as above; assay type: cell-based; settings: MLRMS139, read-out: Minimum Growth Inhibitory Concentration MIC
Experimental: as §1

[10] = system: Staphylococcus aureus Smith (I); assay: as above; assay type: cell-based; settings: read-out: Minimum Growth Inhibitory Concentration MIC
Experimental: as §1

[11] = system: Staphylococcus epidermidis ATCC 14990; assay: as above; assay type: cell-based
Experimental: as §1

Escherichia coli GN206 [12] = assay: Minimum growth inhibitory concentration; assay type: cell-based
Experimental: as §1

Escherichia coli No. 29 [13] = assay: MIC of the infecting strain, Table 2; assay type: cell-based
Experimental: as §1

[14] = system: Klebsiella pneumoniae PCI 602; assay: MIC of the infecting strain, Table 2; assay type: cell-based; settings: PCI602
Experimental: as §1

[15] = system: Pseudomonas aeruginosa GN10362; assay: MIC of the infecting strain, Table 2; assay type: cell-based
Experimental: as §1

Escherichia coli GN206 [16] = assay: Effect to prevent infections in mice, Test Example 6; assay type: in vivo, ICR strain male mice; settings: mouse, i.p. infection 9.5 × 10^6 CFU/mouse with mucin; s.c. one hour after; 7 days
Experimental: (§2) The culture solution of each test bacterium was adjusted to a bacterial concentration shown in the table and then supplemented with 2.5% (W/V) of mucin. The solution was intraperitoneally administered to ICR strain male mice (mean body weight of 20 g, 4 weeks old) of one group being 8 at a dose of 0.5 ml to experimentally cause infection. Each test compound was subcutaneously administered one hour after (provided that in case of Pseudomonas aeruginosa was given one hour and 3 hours after). Observation was made for 7 days.

Escherichia coli No. 29 [17] = assay: as above; assay type: in vivo, ICR strain male mice; settings: mouse, i.p. infection 2.3 × 10^5 CFU/mouse with mucin; s.c. one hour after; 7 days
Experimental: as §2

[18] = system: Klebsiella pneumoniae PCI 602; assay: as above; assay type: in vivo, ICR strain male mice; settings: mouse, i.p. infection 6.5 × 10^4 CFU/mouse with mucin; s.c. one hour after; 7 days
Experimental: as §2

[19] = system: Pseudomonas aeruginosa GN10362; assay: as above; assay type: in vivo, ICR strain male mice; settings: mouse, i.p. infection 8.8 × 10^5 CFU/mouse with mucin; s.c. one hour and 3 hours after; 7 days
Experimental: as §2

[20] = Acute toxicity test, Test Example 5; assay type: in vivo; settings: mouse, in vivo, iv; ICR male mice, tail vein; 14 days
Experimental: (§3) 75 mg of each test compound was dissolved in 0.4 ml of phuysiological saline. The solution was administered to the tail vein of ICR strain male mice (mean body weight of 25 g, 5 weeks old) of one group being 3 mice. Observation was made for 14 days.

ICR strain male mice = assay: Acute toxicity test, Test Example 5; assay type: in vivo; settings: for survival: ICR male mice, 75 mg in 0.4 ml, tail vein, 14 days
Experimental: as §3

[21] = system: clinically isolated Klebsiella pneumoniae, Proteus vulgaris and Pseudomonas aeruginosa; assay: Distribution in sensitivity of clinically isolated strains, Test Examples 2 to 4; assay type: cell-based; settings: compared to known compounds
Experimental: Each MIC of various bacteria clinically isolated from patients was measured in a manner similar to Test Example 1 and its percentage to the all strains to reach the inhibitory concentration was accumulatively expressed .
Distribution in sensitivity to pneumobacilli clinically isolated.
Distribution in sensitivity to variant clinically isolated.
Distribution in sensitivity to Pseudomonas aeruginosa clinically isolated.

[22] = Concentration in blood plasma (rat) and in serum (common marmoset), Test Examples 7 and 8; assay type: in vivo, SD strain male rats; female common marmosets; settings: various animal tests
Experimental: A test compound was dissolved in physiological saline in a concentration of 20 mg/ml. The solution was given in the tail vein of SD strain male rats (mean body weight of 325 g) of one group being 4 in a dose of 1 ml/kg. Blood was collected from the femoral artery in course of time and blood plasma was isolated from the blood. A concentration of the test compound in blood plasma was quantitatively assayed by high performance liquid chromatography. A test compound was dissolved in 0.05M phosphate buffer (pH 6.5) in a concentration of 2.0 mg/ml. The solution was intramuscularly administered to female common marmosets of one group being 2 in a dose of 5 ml/kg. Blood was collected from the femoral artery with passage of time and serum was separated from the blood followed by quantitative assay by bioassay using Escherichia coli K-12 HW 8236 as a bacterium for the assay.

[23] = system: Escherichia coli, pneumobacilli and Pseudomons aeruginosa; assay: Effect to prevent infections, overall comparison with known compounds, Test Example 6; assay type: in vivo, ICR strain male mice; settings: compared to the known compounds (CAZ, HR-810)
Experimental: as §2

[24] = Citrobacter freundii, GN346, read-out: Minimum Growth Inhibitory Concentration MIC
[25] = Bacillus subtilis ATCC6633, 10^6 CFU/ml, medium SDA, read-out: Minimum Growth Inhibitory Concentration MIC
[26] = Citrobacter freundii GN346/16, 10^6 CFU/ml, medium SDA, read-out: Minimum Growth Inhibitory Concentration MIC
[27] = Citrobacter freundii GN346, 10^6 CFU/ml, medium SDA, read-out: Minimum Growth Inhibitory Concentration MIC
[28] = IAM1007, Pseudomonas aeruginosa IAM-1007, 10^6 CFU/ml, medium SDA, read-out: Minimum Growth Inhibitory Concentration MIC
[29] = M0148, Pseudomonas aeruginosa M-0148, 10^6 CFU/ml, medium SDA, read-out: Minimum Growth Inhibitory Concentration MIC
[30] = Staphylococcus aureus Smith (I), 10^6 CFU/ml, medium SDA
[31] = ATCC14990, Staphylococcus epidermidis ATCC 14990, 10^6 CFU/ml, medium SDA, read-out: Minimum Growth Inhibitory Concentration MIC
[32] = Escherichia coli GN206, Table 1, 10^6 CFU/ml, medium SDA, read-out: Minimum Growth Inhibitory Concentration MIC
[33] = Klebsiella pneumoniae PCI 602, Table 2, read-out: MIC

Structure (SMILES) | MIC (Escherichia coli 255/S-1) [µg/mL] | MIC (Escherichia coli 255) [µg/mL] | MIC [5] [µg/mL] | MIC [6] [µg/mL] | MIC [9] [µg/mL] | MIC (Escherichia coli No. 29 [13]) [µg/mL] | ED50 (preventive effect) (Escherichia coli GN206 [16]) [mg/mouse] | ED50 (preventive effect) (Escherichia coli No. 29 [17]) [mg/mouse] | ED50 (preventive effect) [18] [mg/mouse] | ED50 (preventive effect) [19] [mg/mouse] | LD50 at 336 h [20] [mg/kg] | survival (ICR strain male mice) | MIC [1, 25] [µg/mL] | MIC [3, 26] [µg/mL] | MIC [4, 27] [µg/mL] | MIC [7, 28] [µg/mL] | MIC [8, 29] [µg/mL] | MIC [10, 30] [µg/mL] | MIC [11, 31] [µg/mL] | MIC (Escherichia coli GN206 [12]; [32]) [µg/mL] | further results
CC(C)(ON=C(C(=O)NC1C(=O)N2C(C(=O)[O-])=C(C[n+]3ccccc3)CSC12)c1csc(N)n1)C(=O)O [CAZ, (6R, 7R)-7-[(Z)-2-(2-aminothiazol-4-yl)-2-(2-methylcarboxyisoprop;oxyimino)acetamido]-3-pyridinium-1-ylmethyl-ceph-3-em-4-carboxylate] | 0.39 (≈ 0.714 µM) | 12.5 (≈ 22.9 µM) | 0.2 (≈ 0.366 µM) | 0.2 (≈ 0.366 µM) | 0.78 (≈ 1.43 µM) | 0.2 | 1.0 | 0.006 | 0.57 | 8 | ≥ 4000 | survived | – | – | – | – | – | – | – | – | MIC ([1]; Bacillus subtilis, ATCC6633, read-out: Minimum Growth Inhibitory Concentration MIC): 3.13 µg/mL (≈ 5.73 µM); MIC [2]: 25 µg/mL (≈ 45.7 µM); MIC [3, 24]: 0.78 µg/mL (≈ 1.43 µM); MIC [4, 24]: 25 µg/mL (≈ 45.7 µM); MIC ([7]; Pseudomonas aeruginosa, IAM1007, read-out: Minimum Growth Inhibitory Concentration MIC): 0.78 µg/mL (≈ 1.43 µM); MIC ([8]; Pseudomonas aeruginosa, M0148, read-out: Minimum Growth Inhibitory Concentration MIC): 1.56 µg/mL (≈ 2.85 µM); MIC ([10]; Staphylococcus aureus): 3.13 µg/mL (≈ 5.73 µM); MIC ([11]; Staphylococcus epidermidis, ATCC14990, read-out: Minimum Growth Inhibitory Concentration MIC): 3.13 µg/mL (≈ 5.73 µM); MIC (Escherichia coli GN206 [12]; Escherichia coli, GN206): 1.56 µg/mL (≈ 2.85 µM); MIC (Escherichia coli GN206 [12]; Escherichia coli, GN206, read-out: Minimum Growth Inhibitory Concentration MIC): 1.56 µg/mL (≈ 2.85 µM); MIC ([14]; Klebsiella pneumoniae): 0.2 µg/mL; MIC ([15]; Pseudomonas aeruginosa, GN10362): 1.56 µg/mL
CC[n+]1ccc(SCC2=C(C(=O)[O-])N3C(=O)[C@@H](NC(=O)/C(=N\O[C@@H](C)C(=O)O)c4csc(N)n4)[C@H]3SC2)cc1 [Compound I, (6R, 7R)-7-[(Z)-2-(2-aminothiazol-4-yl)-2-{(1S)-carboxyethoxyimino}acetamido]-3-(1-ethylpyridinium-4-ylthiomethyl)-ceph-3-em-4-carboxylate monosodium salt] | 0.1 | 0.2 | 0.2 | 0.05 | 0.78 | 0.1 | 0.36 | 0.002 | 0.33 | 4.5 | ≥ 4000 | survived | 3.13 | 0.39 | 6.25 | 0.78 | 0.78 | 1.56 | 3.13 | 0.1 | MIC (Escherichia coli GN206 [12]; Escherichia coli GN206, Table 2, read-out: MIC): 0.2 µg/mL; MIC [14, 33]: 0.05 µg/mL; MIC ([15]; Pseudomonas aeruginosa GN10362, Table 2, read-out: MIC): 1.56 µg/mL; toxicity (in words) (ICR strain male mice; various animal tests): low toxicity; distribution in sensitivity to clinically isolated strains (in words) [21]: much more excellent antibacterial activity over a wide range; durability in a concentration to exhibit the antibacterial activity (in words) [22]: sufficient durability in a concentration to exhibit the antibacterial activity; transfer into blood and organ (in words) [22]: rapidly transferred into blood and organ; effect to prevent infections compared to the known compounds (in words) [23]: equal to or superior to them
CON=C(C(=O)NC1C(=O)N2C(C(=O)[O-])=C(C[n+]3cccc4c3CCC4)CSC12)c1csc(N)n1 [HR-810, (6R, 7R)-7-[(Z)-2-(2-aminothiazol-4-yl)-2-(methoxyimino)acetamido]-3-cyclopentenopyridinium-1-ylmethyl-ceph-3-em-4-carboxylate] | 0.05 (≈ 0.0972 µM) | 0.2 (≈ 0.389 µM) | 0.78 (≈ 1.52 µM) | 0.1 (≈ 0.194 µM) | 3.13 (≈ 6.08 µM) | 0.05 | – | 0.006 | 1.3 | – | ≥ 4000 | survived | 0.1 (≈ 0.194 µM) | 0.05 (≈ 0.0972 µM) | 0.78 (≈ 1.52 µM) | 12.5 (≈ 24.3 µM) | 12.5 (≈ 24.3 µM) | 0.39 (≈ 0.758 µM) | 0.39 (≈ 0.758 µM) | < 0.025 | MIC [14, 33]: 0.05 µg/mL
